Test results taken from ChEMBL document CHEMBL6109061, “Discovery of an Ultralong-acting Nondepolarizing Neuromuscular Blocker That Displays Short Onset Time and On-Demand Rapid Reversal by a Biocompatible Antagonist” (J Med Chem, 2025).
Calls of active or inactive are those of the source. The rule behind the calls is not given here.

Tests used:
Rattus norvegicus [1] = experiment: Neuromuscular block activity in propofol-induced anesthetized Sprague-Dawley rat model assessed as time duration of 0 to 25 percent recovery indices at 0.04 mg/kg, iv; format: functional
[2] = Solubility of compound in water; format: physicochemical
Rattus norvegicus [3] = experiment: Neuromuscular block activity in propofol-induced anesthetized Sprague-Dawley rat model assessed as inhibition of twitch by measuring twitch intensity of quadriceps muscle at 0.04 mg/kg, iv administered as bolus dose by TOF watch monitor analysis relative to control; format: functional
Rattus norvegicus [4] = experiment: Neuromuscular block activity in propofol-induced anesthetized Sprague-Dawley rat model assessed as onset time required for twitch reduction at 0.04 mg/kg, iv; format: functional
Rattus norvegicus [5] = experiment: Neuromuscular block activity in propofol-induced anesthetized Sprague-Dawley rat model assessed as recovery time at 0.04 mg/kg, iv; format: functional
Rattus norvegicus [6] = experiment: Neuromuscular block activity in propofol-induced anesthetized Sprague-Dawley rat model assessed as inhibition of twitch by measuring twitch intensity of quadriceps muscle at 0.5 mg/kg, iv administered as bolus dose by TOF watch monitor analysis relative to control; format: functional
Rattus norvegicus [7] = experiment: Neuromuscular block activity in propofol-induced anesthetized Sprague-Dawley rat model assessed as inhibition of twitch by measuring twitch intensity of quadriceps muscle at 5 mg/kg, iv administered as bolus dose by TOF watch monitor analysis relative to control; format: functional
Rattus norvegicus [8] = species on record: Rattus norvegicus; experiment: Recovery of Pan-induced neuromuscular block in Sprague-Dawley rat assessed as […] ratio (TOFr) <= 25% by measuring recovery time; format: functional
Rattus norvegicus [9] = experiment: Neuromuscular block activity in propofol-induced anesthetized iv dosed Sprague-Dawley rat model assessed as minimum dose for complete neuromuscular block; format: functional; settings: read-out: MED
Rattus norvegicus [10] = experiment: Neuromuscular block activity in propofol-induced anesthetized Sprague-Dawley rat model assessed as inhibition of twitch by measuring twitch intensity of quadriceps muscle at 0.3 mg/kg, iv administered as bolus dose by TOF watch monitor analysis relative to control; format: functional
Rattus norvegicus [11] = experiment: Neuromuscular block activity in propofol-induced anesthetized Sprague-Dawley rat model assessed as reduction in twitch inhibition by measuring twitch intensity of quadriceps muscle at 0.3 mg/kg, iv administered as bolus dose by TOF watch monitor analysis; format: functional, organism-based

Cc1n2cc[n+]1Cc1ccc(cc1)Oc1ccc(cc1)C[n+]1ccn(c1C)CCCCn1cc[n+](c1C)Cc1ccc(cc1)Oc1ccc(cc1)C[n+]1ccn(c1C)CCCC2.[Cl-].[Cl-].[Cl-].[Cl-]
Time (Rattus norvegicus [1]): 47 min | solubility [2]: ≥ 50 mM | inhibition in vivo at 0.04 mg/kg (Rattus norvegicus [3]): 100% | Time (Rattus norvegicus [4]): 102 s | Time (Rattus norvegicus [5]): 16 min

Cc1n2cc[n+]1Cc1cccc(c1)C[n+]1ccn(c1C)CCCn1cc[n+](c1C)Cc1cccc(c1)C[n+]1ccn(c1C)CCC2
inhibition in vivo at 0.5 mg/kg (Rattus norvegicus [6]): 11% | inhibition in vivo at 0.04 mg/kg (Rattus norvegicus [3]): 0% | inhibition in vivo at 5 mg/kg (Rattus norvegicus [7]): 100%

Cc1n2cc[n+]1Cc1ccc(cc1)Oc1ccc(cc1)C[n+]1ccn(c1C)Cn1cc[n+](c1C)Cc1ccc(cc1)Oc1ccc(cc1)C[n+]1ccn(c1C)C2.[Cl-].[Cl-].[Cl-].[Cl-]
solubility [2]: ≥ 50 mM | inhibition in vivo at 0.04 mg/kg (Rattus norvegicus [3]): 63%

[Cl-].[Cl-].[Cl-].[Cl-].c1cc2ccc1Cn1cc[n+](c1)Cc1ccc(cc1)Oc1ccc(cc1)C[n+]1ccn(c1)Cc1ccc(cc1)Cn1cc[n+](c1)Cc1ccc(cc1)Oc1ccc(cc1)C[n+]1ccn(c1)C2
Time (Rattus norvegicus [8]): 30 min | solubility [2]: ≥ 50 mM | minimal effective dose (Rattus norvegicus [9]): 0.9 mg/kg | inhibition in vivo at 0.3 mg/kg (Rattus norvegicus [10]): 2%

[Cl-].[Cl-].[Cl-].[Cl-].c1cc2cc(c1)Cn1cc[n+](c1)Cc1ccc(cc1)Cc1ccc(cc1)C[n+]1ccn(c1)Cc1cccc(c1)Cn1cc[n+](c1)Cc1ccc(cc1)Cc1ccc(cc1)C[n+]1ccn(c1)C2
solubility [2]: ≥ 50 mM | minimal effective dose (Rattus norvegicus [9]): 2 mg/kg | inhibition in vivo at 0.3 mg/kg (Rattus norvegicus [10]): 15%

Cc1n2cc[n+]1Cc1ccc(cc1)Oc1ccc(cc1)C[n+]1ccn(c1C)CCCCCn1cc[n+](c1C)Cc1ccc(cc1)Oc1ccc(cc1)C[n+]1ccn(c1C)CCCCC2.[Cl-].[Cl-].[Cl-].[Cl-]
solubility [2]: ≥ 50 mM | inhibition in vivo at 0.04 mg/kg (Rattus norvegicus [3]): 58%

[Cl-].[Cl-].[Cl-].[Cl-].c1cc2ccc1Cc1ccc(cc1)C[n+]1ccn(c1)Cc1ccc(cc1)Cn1cc[n+](c1)Cc1ccc(cc1)Cc1ccc(cc1)C[n+]1ccn(c1)Cc1ccc(cc1)Cn1cc[n+](c1)C2
Time (Rattus norvegicus [8]): 32 min | solubility [2]: ≥ 50 mM | minimal effective dose (Rattus norvegicus [9]): 1.8 mg/kg | inhibition in vivo at 0.3 mg/kg (Rattus norvegicus [10]): 17%

Cc1n2cc[n+]1Cc1ccc(cc1)C[n+]1ccn(c1C)CCCn1cc[n+](c1C)Cc1ccc(cc1)C[n+]1ccn(c1C)CCC2
inhibition in vivo at 0.5 mg/kg (Rattus norvegicus [6]): 0% | inhibition in vivo at 0.04 mg/kg (Rattus norvegicus [3]): 0% | inhibition in vivo at 5 mg/kg (Rattus norvegicus [7]): 100%

O=C(O)c1cc2cc(c1)Cn1cc[n+](c1)Cc1ccc(cc1)Oc1ccc(cc1)C[n+]1ccn(c1)Cc1cc(cc(C(=O)O)c1)Cn1cc[n+](c1)Cc1ccc(cc1)Oc1ccc(cc1)C[n+]1ccn(c1)C2.[Cl-].[Cl-].[Cl-].[Cl-]
solubility [2]: ≥ 50 mM | Activity (Rattus norvegicus [11]): inactive | minimal effective dose (Rattus norvegicus [9]): 1 mg/kg | inhibition in vivo at 0.3 mg/kg (Rattus norvegicus [10]): 0%

[Cl-].[Cl-].[Cl-].[Cl-].c1cc2cc(c1)Cn1cc[n+](c1)Cc1ccc(cc1)-c1ccc(cc1)C[n+]1ccn(c1)Cc1cccc(c1)Cn1cc[n+](c1)Cc1ccc(cc1)-c1ccc(cc1)C[n+]1ccn(c1)C2
solubility [2]: ≥ 50 mM | minimal effective dose (Rattus norvegicus [9]): 0.6 mg/kg | inhibition in vivo at 0.3 mg/kg (Rattus norvegicus [10]): 43%

CCc1n2cc[n+]1Cc1ccc(cc1)Oc1ccc(cc1)C[n+]1ccn(c1CC)CCCCCn1cc[n+](c1CC)Cc1ccc(cc1)Oc1ccc(cc1)C[n+]1ccn(c1CC)CCCCC2.[Cl-].[Cl-].[Cl-].[Cl-]
solubility [2]: ≥ 50 mM | inhibition in vivo at 0.04 mg/kg (Rattus norvegicus [3]): 100% | Time (Rattus norvegicus [4]): 222 s | Time (Rattus norvegicus [5]): 13 min
